# In article PMC4448987, “A neuroligin-1-derived peptide stimulates phosphorylation of the NMDA receptor NR1 subunit and rescues MK-801-induced decrease in long-term potentiation and memory impairment” (Pharmacology Research & Perspectives, 2015):
# What was measured:
# adult male Wistar rats = test: Social recognition test; type: in vivo; conditions: rat
# Procedure: Social memory in animals reflects the ability to recognize conspecifics as familiar or unfamiliar. The social recognition test was performed basically as described previously (Secher et al. [2006]), (see Data S1). […] Rats were handled 5 days prior to the experiment and habituated to the transparent test cages for 1 h before start of experiment. The tests included three trials (T1–3), separated by intertribal periods of 2 and 24 h, with the test rat being introduced to a 3-week-old juvenile conspecific (40–50 g; Charles River) for 4 min each time. Investigative behavior was recorded and used to calculate recognition ratios (RR) as previously described (Kogan et al. [2000]). Retention periods longer than 1 h are believed to result in no or only minimal retention of social memory (Popik and van Ree [1998]; Secher et al. [2006]). Terminally, rats were rapidly and humanely rendered unconscious by concussive stunning and euthanized by cervical dislocation.
# Social memory in animals reflects the ability of individuals to recognize conspecifics as familiar or unfamiliar. The animals were handled for 5 days prior to the experiments to minimize stress, habituated to the test cage, and trained to interact with a juvenile rat. Two groups of adult rats were used: a control group and a neurolide-1-treated group. Neurolide-1 (10 mg/kg) or vehicle (saline, 1 ml/kg) was injected subcutaneously (s.c.) two times, 24 and 2 h before the experiment. […] In the first trial, a 3-week-old juvenile male rat was introduced to the experimental adult rat for 4 min, and the time spent investigating the juvenile (e.g., licking, sniffing, chewing, and close following) was scored. Two hours later, a second trial was performed by reintroducing the same juvenile to the test rat to for 4 min, and investigative behavior was recorded. From the two trials, a recognition ratio (RR) was calculated as T2 / (T1 + T2), in which T1 and T2 were the times spent investigating the juvenile during the first and second trials, respectively. […]
# [1] = test system: NMDA receptor NR1 subunit (serine 897); test: NMDA receptor phosphorylation assay (immunoblot, anti-phospho-Ser897-NR1) in cultured cortical neurons; type: cell-based, Wistar rat; conditions: cultured rat cortical neurons, 0.1, 0.3, 1 and 2.7 μmol/L for 5 min, eight independent experiments
# Procedure: Cortical neurons were obtained from Wistar rat embryos at embryonic day 19, of both sexes, basically as previously described (Maar et al. [1997]) (see Data S1). Briefly, animals were rendered unconscious by concussive stunning and euthanized by cervical dislocation. Hereafter, the embryonic brains were collected and cortical neurons were dissociated and seeded in 60-mm tissue culture dishes coated with 1 μg/mL of poly-D-lysine (Sigma-Aldrich, St. Louis, MO) and grown for 8 days before treatment. Then, the cultures were stimulated with either the NL1 ectodomain (0.2, 0.6, 1.8, and 5.4 nmol/L) or neurolide-1 (0.1, 0.3, 1, and 2.7 μmol/L) for 5 min. The cells were lysed, and proteins were resolved by sodium dodecyl sulfate-polyacrylamide gel electrophoresis followed by immunoblotting using rabbit anti-Ser897-NR1 antibody (1:500; Millipore, Billerica, MA), mouse anti-β-tubulin antibody (1:50,000; Sigma-Aldrich), and IRDye secondary antibodies (Odyssey, Lincoln, NE). The bands were visualized using the Odyssey CLX Infrared Imaging System (Odyssey). Four independent experiments with stimulation by NL1 ectodomain and eight independent experiments with stimulation by neurolide-1 were performed.
# male Wistar rats = test: Spatial memory in the Morris water maze; type: in vivo; conditions: rat
# Procedure: The Morris water-maze test (Morris [1984]) was performed as previously described (Kraev et al. [2011]) with slight modifications (see Data S1). Male Wistar rats (Charles River), weighing 150–200 g on the day of arrival were used. To investigate for potential effects on memory consolidation, neurolide-1 was injected immediately after the training sessions on day 1 and 2 (n = 12 in each group). To test for potential effects on memory acquisition neurolide-1 was injected 2 h before start of training on training day 1 and 2 (n = 12 in each group). Finally, to test for potential effects on MK-801-induced learning deficiencies neurolide-1 was injected 2 h before start of training on day 2 and 3 in animals, which had received an injection with MK-801 30 min earlier (n = 6–9 in each group). In a slightly modified version of the MK-801 experiments a group of animals received a neurolide-1 injection immediately after the training sessions on day 1, and then a neurolide-1 injection 2 h before start of training on day 2, preceded by an MK-801 injection 30 min earlier (n = 12 in each group). Terminally, rats were rapidly and humanely rendered unconscious by concussive stunning and euthanized by cervical dislocation.
# The Morris water maze test (Morris, 1984) was conducted in a 160 cm wide circular black tank placed in a dimly lit room and filled with 21°C water up to 20 cm from the top. The tank was surrounded by visual orientation marks, and a 10 cm wide escape platform was placed 1.5 cm below the water level for it to be unseen. A video camera was placed above the tank and connected to a computerized tracking system (Ethovision 3.1, Noldus IT, Wageningen, Holland). The tank was divided into four equal-size quadrants that also served as starting positions. The latency to locate the platform, time spent swimming, and swimming speed were scored within the defined zones (i.e., total area, quadrants, and a platform circle that was 60 cm in diameter with the center in the original platform location). Prior to training, the rats were handled 2 min daily for 5 days to minimize stress during the experiments.
# Reference memory training consisted of three consecutive trials daily for 3 days. Each trial began with placing the animal in the water facing the wall of the pool. The starting position differed for each trial but was identical for all animals. In each trial, the animal was allowed 90 s to locate the platform. […] After each trial, the rats were allowed 20 s of orientation time on the platform and then removed from the pool for 20 s before the next trial was initiated. After the last trial each day, the animals were dried and returned to their home cages.
# To test for effects on long-term memory, the animals were tested in a probe trial 24 h after the last reference memory training. In the probe trial, the platform was removed, and the animals began from a position in a quadrant adjacent to the original platform quadrant. The rats were allowed to swim for 60 s, after which the trial was stopped.
sequence,measurement,setting,value
SEGNRWSNSTKGLFQRA [neurolide-1],"long-term social memory, 24 h after the first trial","adult male Wistar rats; 10 mg/kg s.c. 24 and 1 h before first trial, n = 12",did not exhibit an improvement in social memory
same,"short-term social memory (recognition ratio), intertrial interval 2 h","adult male Wistar rats; 10 mg/kg s.c. 24 and 1 h before first trial, same juvenile, n = 12, P < 0.001 vs control",enhanced social memory
same,recognition ratio with a new unfamiliar juvenile in the second trial,"adult male Wistar rats; 10 mg/kg s.c. twice, control test, compared with vehicle group or theoretical value 0.5, n = 12",did not lead to a decrease in the RR
same,NR1 phosphorylation on serine 897,[1],induced NR1 phosphorylation proportionally to the increase in peptide concentration
same,"learning, velocity and memory retention in probe test (memory acquisition)","male Wistar rats; 10 mg/kg s.c. 2 h before training sessions on days 1 and 2, n = 12",No effect
same,learning on day 2 or 3 and memory retention in probe test (memory consolidation),"male Wistar rats; 10 mg/kg s.c. immediately after last training session on days 1 and 2, probe test 24 h after last training, n = 12",No effect
same,velocity in the water maze,"male Wistar rats; MK-801 0.1 mg/kg s.c. with or without neurolide-1 10 mg/kg s.c. (long-term regimen), n = 12",Neither treatments affected velocity
same,"effect on MK-801-impaired learning and memory retention, short-term treatment","male Wistar rats; neurolide-1 10 mg/kg s.c. 30 min after MK-801 0.1 mg/kg and 2 h before first trial on days 2 and 3, n = 6-9",did not reduce the effect of MK-801
same,effect on MK-801-impaired learning (escape latency),"male Wistar rats; neurolide-1 10 mg/kg s.c. after training on day 1 and on day 2, 30 min after MK-801 0.1 mg/kg and 2 h before first training session, n = 12",attenuated the effect of the NMDA receptor inhibitor on learning
same,effect on MK-801-impaired memory in the probe test 24 h after last training session,"male Wistar rats; neurolide-1 10 mg/kg s.c. after training on day 1 and on day 2, 30 min after MK-801 0.1 mg/kg, n = 12",completely abrogated the effect of MK-801
